For this assay, the system named is Mycobacterium tuberculosis. Briefly: Antitubercular activity against Mycobacterium tuberculosis H37Rv by BACTEC method. It is filed as functional, organism-based.

The structures appear in SMILES notation.

Results on 25 compounds are retold here after ChEMBL document CHEMBL3044655, “QSAR studies of 7-methyljuglone derivatives as antitubercular agents” (Med Chem Res, 2012).

For `CC(=O)Oc1cc(C)c(Cl)c2c1C(=O)C=CC2=O`, the IC50 by setting is: (read-out: IC50) 6.3 nM; (read-out: pIC50 (converted)) 6.3 nM.

On to `CCOc1cc(C)c(Cl)c2c1C(=O)C=CC2=O`, for which the IC50 by setting is: (read-out: IC50) 36.1 nM; (read-out: pIC50 (converted)) 36.1 nM.

Turning to `Cc1cc(O)c2c(c1Cl)C(=O)C=CC2=O` [5-CHLORO-8-HYDROXY-6-METHYLNAPHTHALENE-1,4-DIONE], the IC50 runs as follows: (read-out: IC50) 2.5 nM; (read-out: pIC50 (converted)) 2.5 nM.

On to `Cc1cc(Cl)c2c(c1O)C(=O)C=CC2=O` [8-CHLORO-5-HYDROXY-6-METHYLNAPHTHALENE-1,4-DIONE], for which the IC50 reads like this: (read-out: IC50) 4.6 nM; (read-out: pIC50 (converted)) 4.6 nM.

For `CC(=O)Oc1cc(OC(C)=O)c2c(OC(C)=O)ccc(Cl)c2c1OC(C)=O`, the IC50 was 12.4 nM (read-out: IC50) and 12.2 nM (read-out: pIC50 (converted)).

For `Cc1cc(O)c2c(c1Br)C(=O)C=CC2=O` [5-BROMO-8-HYDROXY-6-METHYLNAPHTHALENE-1,4-DIONE], the IC50 reads like this: (read-out: IC50) 3.6 nM; (read-out: pIC50 (converted)) 3.6 nM.

`Cc1ccc2c(c1O)C(=O)C=CC2=O`: the IC50 reads like this: (read-out: IC50) 3.1 nM; (read-out: pIC50 (converted)) 3.1 nM.

As for `CC(=O)Oc1cc(OC(C)=O)c2c(OC(C)=O)ccc(F)c2c1OC(C)=O`, the IC50 reads like this: (read-out: IC50) 7.9 nM; (read-out: pIC50 (converted)) 7.97 nM.

`CC(=O)Oc1cc(OC(C)=O)c2c(OC(C)=O)c(C)cc(Cl)c2c1OC(C)=O`: the IC50 runs as follows: (read-out: IC50) 149 nM; (read-out: pIC50 (converted)) 149 nM.

Regarding `CCOc1c(C)cc(Cl)c2c1C(=O)C=CC2=O`, the IC50 (read-out: IC50) was 12.5 nM and the IC50 (read-out: pIC50 (converted)) was 12.5 nM.

For the compound `CC(=O)Oc1cc(OC(C)=O)c2c(OC(C)=O)c(C)c(C)c(F)c2c1OC(C)=O`, the IC50 by setting is: (read-out: IC50) 3.3 nM; (read-out: pIC50 (converted)) 3.34 nM.

Regarding `O=C1C=CC(=O)c2c(O)cccc21` [JUGLONE], the IC50 is 1.2 nM (read-out: IC50) and 1.2 nM (read-out: pIC50 (converted)).

As to `CC(=O)Oc1cc(OC(C)=O)c2c(OC(C)=O)cc(C)cc2c1OC(C)=O`, the IC50 by setting is: (read-out: IC50) 17.2 nM; (read-out: pIC50 (converted)) 17.2 nM.

Turning to `COc1cc(C)c(Cl)c2c1C(=O)C=CC2=O`, the IC50 reads like this: (read-out: IC50) 7.7 nM; (read-out: pIC50 (converted)) 7.7 nM.

In the case of `Cc1cc(O)c2c(c1)C(=O)C(O)=CC2=O`, the IC50 by setting is: (read-out: IC50) 3.1 nM; (read-out: pIC50 (converted)) 3.1 nM.

Turning to `CC(=O)Oc1cc(OC(C)=O)c2c(OC(C)=O)cc(C)c(Cl)c2c1OC(C)=O`, the IC50 is 27.8 nM (read-out: IC50) and 27.8 nM (read-out: pIC50 (converted)).

In the case of `COc1c(C)cc(Cl)c2c1C(=O)C=CC2=O`, the IC50 (read-out: IC50) came out at 8 nM and the IC50 (read-out: pIC50 (converted)) is 8 nM.

In the case of `Cc1cc(O)c2c(c1F)C(=O)C=CC2=O` [5-FLUORO-8-HYDROXY-6-METHYLNAPHTHALENE-1,4-DIONE], the IC50 runs as follows: (read-out: IC50) 7.6 nM; (read-out: pIC50 (converted)) 7.6 nM.

For `CC(=O)Oc1cc(OC(C)=O)c2c(OC(C)=O)c(C)c(C)c(Cl)c2c1OC(C)=O`, the IC50 is 7.7 nM (read-out: IC50) and 7.7 nM (read-out: pIC50 (converted)).

Consider `CC(=O)Oc1c(C)cc(Cl)c2c1C(=O)C=CC2=O`, for which the IC50 runs as follows: (read-out: IC50) 21.1 nM; (read-out: pIC50 (converted)) 21.1 nM.

As to `COc1cc(C)cc2c1C(=O)C=CC2=O`, the IC50 by setting is: (read-out: IC50) 5.8 nM; (read-out: pIC50 (converted)) 5.8 nM.

With `CCOc1cc(C)cc2c1C(=O)C=CC2=O`, the IC50 by setting is: (read-out: IC50) 6.3 nM; (read-out: pIC50 (converted)) 6.3 nM.

For `CC(=O)Oc1cc(C)cc2c1C(=O)C=CC2=O`, the IC50 is 6 nM (read-out: IC50) and 6 nM (read-out: pIC50 (converted)).

Take `COc1c(OC)c(OC(C)=O)c2c(OC(C)=O)cc(OC(C)=O)c(OC(C)=O)c2c1F`: the IC50 is 3.9 nM (read-out: IC50) and 3.86 nM (read-out: pIC50 (converted)).

Regarding `Cc1cc(O)c2c(c1)C(=O)C=CC2=O` [RAMENTACEONE], the IC50 is 15.1 nM (read-out: IC50) and 15.1 nM (read-out: pIC50 (converted)).
